Measurements reported in ChEMBL document CHEMBL5465560, “Selectivity Literature for EUbOPEN Chemogenomic Library” (2024).

Columns and labels:
[1] = target: Glycogen synthase kinase-3 alpha (Homo sapiens, UniProt P49840); assay: Selectivity interaction (Kinase panel (KiNativ target engagement assay in Jurkat cells)) EUB0001635a GSK3A; assay type: cell-based; settings: Selectivity number of off-targets 0.0, Selectivity number of targets 233.0, Source Knowledge https://www.sciencedirect.com/science/article/pii/S2451945619300674?via%3Dihub, at 1 µM
[2] = target: Prostaglandin G/H synthase 2 (Homo sapiens, UniProt P35354); assay: Selectivity interaction (COX-2 assay, human recombinant ) EUB0000877a PTGS2
[3] = target: Hepatocyte growth factor-like protein (Homo sapiens) (UniProt P26927); settings: at 10 µM
[4] = target: Tyrosine-protein kinase Lck (Homo sapiens, UniProt P06239)
[5] = target: Serine/threonine-protein kinase PLK2 (Homo sapiens, UniProt Q9NYY3)
[6] = target: T1, Eukaryotic elongation factor 2 kinase (Homo sapiens) (UniProt O00418); assay: Selectivity interaction (ActivX KiNativ screen (kinase selectivity in THP-1 cell lysates)) EUB0000639a EEF2K; assay type: subcellular; settings: lysate
T1 sequence (whole entry): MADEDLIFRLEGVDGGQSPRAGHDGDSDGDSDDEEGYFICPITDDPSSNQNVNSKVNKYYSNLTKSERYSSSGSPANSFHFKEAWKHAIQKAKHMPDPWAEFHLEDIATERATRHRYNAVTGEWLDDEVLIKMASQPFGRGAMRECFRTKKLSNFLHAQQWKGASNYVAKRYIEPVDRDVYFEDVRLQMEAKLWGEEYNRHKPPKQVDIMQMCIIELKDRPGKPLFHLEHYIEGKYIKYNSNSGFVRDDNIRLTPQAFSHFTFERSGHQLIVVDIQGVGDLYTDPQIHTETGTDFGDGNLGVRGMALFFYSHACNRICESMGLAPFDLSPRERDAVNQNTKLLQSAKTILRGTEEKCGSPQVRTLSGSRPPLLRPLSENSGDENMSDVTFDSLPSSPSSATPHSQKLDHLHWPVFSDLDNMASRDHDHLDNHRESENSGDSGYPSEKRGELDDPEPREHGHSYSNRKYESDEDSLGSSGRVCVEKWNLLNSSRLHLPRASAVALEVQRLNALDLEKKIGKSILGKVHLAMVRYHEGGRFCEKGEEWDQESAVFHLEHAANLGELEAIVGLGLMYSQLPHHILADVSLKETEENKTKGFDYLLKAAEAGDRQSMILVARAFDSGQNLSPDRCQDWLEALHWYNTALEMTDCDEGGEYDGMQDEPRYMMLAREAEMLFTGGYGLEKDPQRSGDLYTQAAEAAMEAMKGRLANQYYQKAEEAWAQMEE

[7] = target: T2, Tyrosine-protein kinase JAK3 (Homo sapiens) (UniProt P52333); assay: Selectivity interaction (KinomeScan (DiscoverX)) EUB0000607a JAK3; settings: at 10 µM
T2 sequence (whole entry): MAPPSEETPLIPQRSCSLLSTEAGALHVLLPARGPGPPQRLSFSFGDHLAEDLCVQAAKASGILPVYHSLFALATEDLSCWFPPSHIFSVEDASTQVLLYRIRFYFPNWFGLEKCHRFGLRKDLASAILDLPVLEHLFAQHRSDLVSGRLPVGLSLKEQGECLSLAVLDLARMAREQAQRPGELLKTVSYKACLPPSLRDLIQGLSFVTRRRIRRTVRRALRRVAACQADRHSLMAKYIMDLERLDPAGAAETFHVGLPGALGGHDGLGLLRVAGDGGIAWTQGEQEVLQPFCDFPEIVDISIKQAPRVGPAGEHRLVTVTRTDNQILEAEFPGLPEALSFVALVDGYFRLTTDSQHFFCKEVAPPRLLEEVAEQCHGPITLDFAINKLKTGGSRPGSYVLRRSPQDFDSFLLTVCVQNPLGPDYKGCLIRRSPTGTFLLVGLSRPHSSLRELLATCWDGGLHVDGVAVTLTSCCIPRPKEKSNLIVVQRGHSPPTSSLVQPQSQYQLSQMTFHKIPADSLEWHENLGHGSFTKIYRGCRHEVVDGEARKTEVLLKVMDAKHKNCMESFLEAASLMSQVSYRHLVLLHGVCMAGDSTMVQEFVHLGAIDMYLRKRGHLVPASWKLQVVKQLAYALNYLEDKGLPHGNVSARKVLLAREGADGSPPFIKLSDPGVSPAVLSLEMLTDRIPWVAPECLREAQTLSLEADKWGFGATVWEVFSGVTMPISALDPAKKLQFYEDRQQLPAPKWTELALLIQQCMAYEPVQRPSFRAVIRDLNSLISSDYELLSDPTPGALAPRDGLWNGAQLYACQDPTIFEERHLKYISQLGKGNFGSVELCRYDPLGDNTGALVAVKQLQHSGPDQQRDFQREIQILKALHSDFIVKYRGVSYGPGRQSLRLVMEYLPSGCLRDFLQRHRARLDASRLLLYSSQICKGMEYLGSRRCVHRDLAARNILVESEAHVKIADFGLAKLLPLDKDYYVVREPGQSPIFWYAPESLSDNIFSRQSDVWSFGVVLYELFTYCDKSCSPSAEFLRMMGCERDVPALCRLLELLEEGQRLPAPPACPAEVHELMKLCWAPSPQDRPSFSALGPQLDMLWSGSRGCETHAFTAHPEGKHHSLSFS

[8] = target: Platelet-derived growth factor receptor alpha (Homo sapiens, UniProt P16234); assay: Selectivity interaction (KinomeScan (DiscoverX)) EUB0000595a PDGFRA; settings: at 10 µM
[9] = target: Serine/threonine-protein kinase mTOR (Homo sapiens, UniProt P42345); assay: Selectivity interaction (KinomeScan (DiscoverX)) EUB0000045b MTOR
[10] = target: Eukaryotic translation initiation factor 2-alpha kinase 1 (Homo sapiens) (UniProt Q9BQI3); assay: Selectivity interaction (Ambit KINOMEscan and KiNATiv profiling in Jurkat cells) EUB0000090b EIF2AK1; assay type: cell-based; settings: at 1 µM
[11] = target: Tyrosine-protein kinase Fgr (Homo sapiens) (UniProt P09769); assay: Selectivity interaction (KinomeScan (DiscoverX)) EUB0001619a FGR; settings: at 1 µM
Tyrosine-protein kinase Fgr (Homo sapiens), sequence (P09769 2-529 limits assumed): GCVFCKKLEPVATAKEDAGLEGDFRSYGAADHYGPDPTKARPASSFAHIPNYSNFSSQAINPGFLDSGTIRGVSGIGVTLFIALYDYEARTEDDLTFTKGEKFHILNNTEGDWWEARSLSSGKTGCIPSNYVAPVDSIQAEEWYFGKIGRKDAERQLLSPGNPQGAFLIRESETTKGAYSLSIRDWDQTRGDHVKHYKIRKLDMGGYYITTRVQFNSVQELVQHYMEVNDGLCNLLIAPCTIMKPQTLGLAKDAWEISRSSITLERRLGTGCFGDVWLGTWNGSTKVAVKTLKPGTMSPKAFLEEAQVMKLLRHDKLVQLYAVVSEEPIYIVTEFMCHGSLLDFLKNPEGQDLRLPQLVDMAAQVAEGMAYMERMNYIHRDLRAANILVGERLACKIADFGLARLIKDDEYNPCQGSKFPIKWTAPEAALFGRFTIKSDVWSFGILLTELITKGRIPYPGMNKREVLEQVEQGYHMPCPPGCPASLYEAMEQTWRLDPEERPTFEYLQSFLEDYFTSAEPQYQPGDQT

Prostaglandin G/H synthase 2, sequence (P35354 whole entry): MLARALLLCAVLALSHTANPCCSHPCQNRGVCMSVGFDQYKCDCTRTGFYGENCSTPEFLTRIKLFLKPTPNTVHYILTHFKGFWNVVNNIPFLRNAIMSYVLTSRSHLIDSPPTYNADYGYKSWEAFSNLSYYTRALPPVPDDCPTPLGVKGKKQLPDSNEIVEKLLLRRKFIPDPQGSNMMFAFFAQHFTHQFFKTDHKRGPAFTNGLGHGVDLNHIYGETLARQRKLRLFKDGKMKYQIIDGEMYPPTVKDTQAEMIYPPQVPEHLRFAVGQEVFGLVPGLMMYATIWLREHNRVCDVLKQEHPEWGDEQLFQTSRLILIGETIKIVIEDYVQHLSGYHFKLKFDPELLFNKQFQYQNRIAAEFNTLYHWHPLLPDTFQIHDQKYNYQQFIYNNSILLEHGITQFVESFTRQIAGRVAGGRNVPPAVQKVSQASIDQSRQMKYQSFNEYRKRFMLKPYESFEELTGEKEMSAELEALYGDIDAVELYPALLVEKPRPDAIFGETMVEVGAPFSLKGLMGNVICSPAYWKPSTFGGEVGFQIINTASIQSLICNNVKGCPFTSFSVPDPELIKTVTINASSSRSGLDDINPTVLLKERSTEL
Glycogen synthase kinase-3 alpha, sequence (P49840 2-483 limits assumed): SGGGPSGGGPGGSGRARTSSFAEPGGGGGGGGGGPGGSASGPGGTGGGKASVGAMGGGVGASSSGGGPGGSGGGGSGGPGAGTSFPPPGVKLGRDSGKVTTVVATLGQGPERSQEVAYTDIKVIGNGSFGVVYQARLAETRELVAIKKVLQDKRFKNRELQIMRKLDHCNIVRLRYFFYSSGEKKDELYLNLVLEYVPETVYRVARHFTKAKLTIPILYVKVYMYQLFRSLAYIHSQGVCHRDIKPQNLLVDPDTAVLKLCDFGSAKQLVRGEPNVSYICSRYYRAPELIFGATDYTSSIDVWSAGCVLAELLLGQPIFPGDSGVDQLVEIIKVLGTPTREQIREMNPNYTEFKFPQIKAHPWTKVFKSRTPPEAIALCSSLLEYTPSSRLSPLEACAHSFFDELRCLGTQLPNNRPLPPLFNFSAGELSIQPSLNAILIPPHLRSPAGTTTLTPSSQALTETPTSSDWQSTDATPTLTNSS
Serine/threonine-protein kinase PLK2, sequence (Q9NYY3 whole entry): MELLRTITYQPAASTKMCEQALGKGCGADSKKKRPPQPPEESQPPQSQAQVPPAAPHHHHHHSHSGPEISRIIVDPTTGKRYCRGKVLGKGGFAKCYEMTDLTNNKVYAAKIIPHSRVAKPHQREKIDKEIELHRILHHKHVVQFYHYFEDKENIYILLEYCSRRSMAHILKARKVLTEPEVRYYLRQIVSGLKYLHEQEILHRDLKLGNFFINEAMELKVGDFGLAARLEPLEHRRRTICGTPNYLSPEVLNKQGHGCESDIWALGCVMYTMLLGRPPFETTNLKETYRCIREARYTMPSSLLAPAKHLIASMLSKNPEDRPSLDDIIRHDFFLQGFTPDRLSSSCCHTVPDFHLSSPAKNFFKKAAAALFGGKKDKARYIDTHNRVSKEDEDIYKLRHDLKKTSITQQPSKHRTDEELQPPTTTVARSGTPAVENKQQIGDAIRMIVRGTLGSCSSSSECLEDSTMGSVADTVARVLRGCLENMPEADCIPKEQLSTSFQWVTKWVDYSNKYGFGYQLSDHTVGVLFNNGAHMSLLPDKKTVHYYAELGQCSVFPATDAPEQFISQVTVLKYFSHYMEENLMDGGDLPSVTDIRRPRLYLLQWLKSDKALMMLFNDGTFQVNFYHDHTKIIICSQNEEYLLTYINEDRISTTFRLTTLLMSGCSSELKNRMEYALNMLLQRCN
Tyrosine-protein kinase Lck, sequence (P06239 whole entry): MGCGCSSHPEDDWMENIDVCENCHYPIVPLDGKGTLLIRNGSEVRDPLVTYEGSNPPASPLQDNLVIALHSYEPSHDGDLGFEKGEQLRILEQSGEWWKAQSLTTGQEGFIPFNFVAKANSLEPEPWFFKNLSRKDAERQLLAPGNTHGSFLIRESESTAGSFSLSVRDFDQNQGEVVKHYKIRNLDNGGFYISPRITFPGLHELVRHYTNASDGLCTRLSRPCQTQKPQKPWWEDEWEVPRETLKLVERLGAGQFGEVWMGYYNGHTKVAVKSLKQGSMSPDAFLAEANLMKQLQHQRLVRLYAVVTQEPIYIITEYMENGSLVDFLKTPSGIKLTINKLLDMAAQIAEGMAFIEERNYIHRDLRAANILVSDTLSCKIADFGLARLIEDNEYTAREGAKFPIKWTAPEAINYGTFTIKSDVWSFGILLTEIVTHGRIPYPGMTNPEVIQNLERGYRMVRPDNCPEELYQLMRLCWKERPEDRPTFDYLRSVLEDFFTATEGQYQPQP
Platelet-derived growth factor receptor alpha, sequence (P16234 whole entry): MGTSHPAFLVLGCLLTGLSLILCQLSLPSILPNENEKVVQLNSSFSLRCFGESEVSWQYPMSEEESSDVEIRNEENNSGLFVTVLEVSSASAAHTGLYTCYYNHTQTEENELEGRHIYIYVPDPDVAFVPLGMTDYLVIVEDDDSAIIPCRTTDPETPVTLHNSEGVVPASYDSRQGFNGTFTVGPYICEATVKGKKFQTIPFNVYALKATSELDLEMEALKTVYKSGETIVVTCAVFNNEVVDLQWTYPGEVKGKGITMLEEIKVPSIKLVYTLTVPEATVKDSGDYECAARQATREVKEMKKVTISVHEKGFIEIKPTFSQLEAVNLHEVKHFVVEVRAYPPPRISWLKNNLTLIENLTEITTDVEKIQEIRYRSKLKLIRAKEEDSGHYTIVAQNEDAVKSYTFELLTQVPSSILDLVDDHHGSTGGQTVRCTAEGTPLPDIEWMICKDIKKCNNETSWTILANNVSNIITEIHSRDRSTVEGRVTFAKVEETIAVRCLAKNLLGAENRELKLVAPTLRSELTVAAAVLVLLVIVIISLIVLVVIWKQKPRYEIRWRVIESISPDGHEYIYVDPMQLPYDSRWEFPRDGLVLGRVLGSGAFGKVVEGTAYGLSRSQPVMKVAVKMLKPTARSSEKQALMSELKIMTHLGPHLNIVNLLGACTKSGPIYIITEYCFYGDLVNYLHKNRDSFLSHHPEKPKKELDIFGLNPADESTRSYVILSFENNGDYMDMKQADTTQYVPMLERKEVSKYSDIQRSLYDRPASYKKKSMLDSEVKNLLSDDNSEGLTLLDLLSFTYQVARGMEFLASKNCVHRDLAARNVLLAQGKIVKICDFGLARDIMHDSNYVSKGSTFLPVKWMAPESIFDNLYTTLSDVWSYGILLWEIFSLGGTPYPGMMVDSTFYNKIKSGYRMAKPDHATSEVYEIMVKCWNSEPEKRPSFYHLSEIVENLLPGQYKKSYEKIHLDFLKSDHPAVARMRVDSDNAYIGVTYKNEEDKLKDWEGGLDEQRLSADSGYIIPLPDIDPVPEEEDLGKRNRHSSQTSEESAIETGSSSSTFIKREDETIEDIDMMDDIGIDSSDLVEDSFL
Eukaryotic translation initiation factor 2-alpha kinase 1 (Homo sapiens), sequence (Q9BQI3 whole entry): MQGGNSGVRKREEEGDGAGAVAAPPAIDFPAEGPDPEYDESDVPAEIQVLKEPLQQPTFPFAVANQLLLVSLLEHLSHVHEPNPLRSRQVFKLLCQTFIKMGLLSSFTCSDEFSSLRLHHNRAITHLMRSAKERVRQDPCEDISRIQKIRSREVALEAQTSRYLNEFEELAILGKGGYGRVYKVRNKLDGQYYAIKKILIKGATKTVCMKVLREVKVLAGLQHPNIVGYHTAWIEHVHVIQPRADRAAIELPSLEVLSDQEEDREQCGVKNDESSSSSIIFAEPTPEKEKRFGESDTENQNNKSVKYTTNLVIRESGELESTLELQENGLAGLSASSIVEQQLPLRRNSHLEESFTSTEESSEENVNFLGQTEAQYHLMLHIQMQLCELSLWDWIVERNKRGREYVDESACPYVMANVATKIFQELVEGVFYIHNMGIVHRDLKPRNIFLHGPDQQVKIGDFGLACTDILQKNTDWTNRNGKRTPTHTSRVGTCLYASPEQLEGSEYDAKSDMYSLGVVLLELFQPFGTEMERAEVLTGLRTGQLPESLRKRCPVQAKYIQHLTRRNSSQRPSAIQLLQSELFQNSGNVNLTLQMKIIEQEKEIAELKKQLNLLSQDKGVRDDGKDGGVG

C=CC(=O)Nc1ccc(C(=O)Nc2[nH]nc3c2CN(C(=O)N[C@H](CN(C)C)c2ccccc2)C3(C)C)cc1
% of engagement [1]: -9.5%

CCC(=O)N1CC[C@H](Nc2ncnc3c2CN(c2cnc(OC)c(C(F)(F)F)c2)CC3)C1 [LENIOLISIB]
IC50 [2]: > 30 µM

Cc1cc([C@@H](C)Nc2ccccc2C(=O)O)c2nc(N3CCOCC3)cc(=O)n2c1 [AZD-6482]
% of control [3]: 95%

CCc1cccc(CC)c1NC(=O)c1nn(C)c2c1CCc1cnc(Nc3ccc(C(=O)NC4CCN(C)CC4)cc3OC(F)(F)F)nc1-2
IC50 [4]: > 10 µM
IC50 [5]: > 10 µM

CC[C@@H]1[C@H](F)C(=O)N[C@@H]1COc1nccc2cc(C(N)=O)c(OC)cc12 [ZIMLOVISERTIB]
% of inhibition ([6]; at 0.01 µM): 4.3%
% of inhibition ([6]; at 0.04 µM): -14.7%
% of inhibition ([6]; at 0.2 µM): 2.9%
% of inhibition ([6]; at 1 µM): -15.8%
% of inhibition ([6]; at 5 µM): -3.6%

CNC(=O)Nc1ccc(-c2nc(N3CC4CCC(C3)O4)c3cnn(C4CCC5(CC4)OCCO5)c3n2)cc1
% of control [7]: 90%

COCC(=O)NC/C=C/c1ccc2ncnc(Nc3ccc(Oc4ccc(C)nc4)c(C)c3)c2c1 [CP-724714]
% of control [8]: 56%

C=CC(=O)Nc1cc(-n2c(=O)ccc3cnc4ccc(-c5ccc(NS(C)(=O)=O)cc5)cc4c32)ccc1C
% of control ([9]; at 1 µM): 45%
% of control ([9]; at 10 µM): 0%

CN(C)C/C=C/C(=O)Nc1ccc(C(=O)N2CCCC(Nc3ncc(Cl)c(-c4c[nH]c5ccccc45)n3)C2)cc1 (stereo unspecified)
% of control [10]: 84%

N#Cc1cccc(-c2c[nH]c3ncnc(N4CCOCC4)c23)c1
% of control [11]: 100%
